Holding throughout (type): cell-based, murine
The test system of one assay is P388/MET. Briefly: Growth rate of P388/MET resistant cells. The conditions noted are these: P388/MET grown in the presence of 10^−8 drug, no lipid treatment. The method, then: (§1) P388/MET and P388/DOX resistant cell lines were developed as described in Example 7 above. Non-treated P388 cells and resistant cell lines of these cells were grown in the presence and absence of 10^−8M of MET or DOX as indicated in Table 5 below.

The test system of the next assay is P388 (unadapted). Nature of the assay: Growth rate of unadapted P388 cells. The conditions noted are these: unadapted P388 grown in the presence of 10^−8M drug; relative to unadapted P388 = 100. The protocol: as §1
The subject of another assay is P388/DOX. Briefly: Growth rate of P388/DOX resistant cells. The conditions noted are these: P388/DOX grown in the presence of 10^−8 drug, no lipid treatment. The protocol:
as §1

`CN(Cc1cnc2nc(N)nc(N)c2n1)c1ccc(C(=O)N[C@@H](CCC(=O)O)C(=O)O)cc1` [MET, methotroxeate]: the relative growth rate turned out to be 95 ± 5 in the assay on P388/MET, 10 ± 5 in the assay on P388 (unadapted) and 93 ± 5 in the assay with P388/DOX.

Take `COc1cccc2c1C(=O)c1c(O)c3c(c(O)c1C2=O)C[C@@](O)(C(=O)CO)C[C@@H]3O[C@H]1C[C@H](N)[C@H](O)[C@H](C)O1` [DOX, doxorubicine]: the relative growth rate is 95 ± 5 with P388/MET, 10 ± 5 with P388 (unadapted) and 95 ± 5 in the assay with P388/DOX.

(Values after patent US6358937B1, “Method for the treatment of cancer using phosphatidic acid-comprising compositions” (Modus Biological Membranes Ltd., priority 1996, dated 2002).)
